63 compounds from US7807703B2, “Substituted aryl ketones” (Bayer CropScience AG, priority 2002, dated 2010) can be followed below.

The data set in a line: log P determination by reversed-phase HPLC (EEC Directive 79/831 Annex V.A8; acidic or neutral mobile phase). The conditions noted are these: HPLC, reversed-phase C18, 43° C.; acidic range a): 0.1% aqueous phosphoric acid, acetonitrile, linear gradient 10% to 90% acetonitrile. The class given is physicochemical. How it is done:
The log P values given in the table were determined in accordance with EEC Directive 79/831 Annex V.A8 by HPLC (High Performance Liquid Chromatography) using a reversed-phase column (C 18). Temperature: 43° C.
(a) Mobile phases for the determination in the acidic range: 0.1% aqueous phosphoric acid, acetonitrile; linear gradient from 10% acetonitrile to 90% acetonitrile—the corresponding measurement results are marked a) in Table 1.
(b) Mobile phases for the determination in the neutral range: 0.01 molar aqueous phosphate buffer solution, acetonitrile; linear gradient from 10% acetonitrile to 90% acetonitrile—the corresponding measurement results are marked b) in Table 1.
Consider `CON(Cc1c(S(C)(=O)=O)ccc(C(=O)C2C(=O)CCCC2=O)c1Cl)C1CCCOC1` (stereo not drawn) [Example 411], for which the logP entry is listed as “(I-2) logP = 2.74^a)”.

Take `CCn1ncc(C(=O)c2ccc(S(C)(=O)=O)c(CN(OC)C3CCCOC3)c2Cl)c1O` (stereo not drawn) [Example 412]: the logP entry was “(I-2) logP = 2.01^a)”.

With `CCON(C)Cc1c(S(C)(=O)=O)ccc(C(=O)c2cnn(CC)c2O)c1Cl` [Example 413], the logP entry was “logP = 2.09^a)”.

As to `CCON(C)Cc1c(S(C)(=O)=O)ccc(C(=O)c2cnn(C)c2O)c1Cl` [Example 414], the logP result is listed as “logP = 1.71^a)”.

For `CCON(Cc1c(S(C)(=O)=O)ccc(C(=O)C2C(=O)CCCC2=O)c1Cl)CC1CCOC1` (stereo not drawn) [Example 415], the logP result was “(I-2) logP = 2.84^a)”.

`CCON(Cc1c(S(C)(=O)=O)ccc(C(=O)c2cnn(CC)c2O)c1Cl)CC1CCOC1` (stereo not drawn) [Example 416]: the logP entry was “(I-2) logP = 2.11^a)”.

`CCn1ncc(C(=O)c2ccc(S(C)(=O)=O)c(CN(CC3CCOC3)OC3CCCC3)c2Cl)c1O` (stereo not drawn) [Example 417]: the logP entry was “(I-2) logP = 2.76^a)”.

As to `CCON(Cc1c(S(C)(=O)=O)ccc(C(=O)C2C(=O)CCCC2=O)c1Cl)C(C)C` [Example 418], the logP entry is reported as “logP = 3.66^a)”.

Take `CON(CC(=O)N(C)C)Cc1c(S(C)(=O)=O)ccc(C(=O)C2C(=O)CCC(C)(C)C2=O)c1Cl` (stereo not drawn) [Example 419]: the logP entry is reported as “(I-2) logP = 2.58^a)”.

As to `CC(C)ON(Cc1c(S(C)(=O)=O)ccc(C(=O)C2C(=O)CCCC2=O)c1Cl)C(C)C` [Example 420], the logP result was “logP = 3.99^a)”.

Turning to `CCn1ncc(C(=O)c2ccc(S(C)(=O)=O)c(CN(OC(C)C)C(C)C)c2Cl)c1O` [Example 421], the logP entry is “logP = 3.25^a)”.

For the compound `CCn1ncc(C(=O)c2ccc(S(C)(=O)=O)c(CNOC3CCCC3)c2Cl)c1O` [Example 422], the logP result is “(I-2) logP = 2.31^a)”.

For the compound `CCn1ncc(C(=O)c2ccc(S(C)(=O)=O)c(CN(CC3CCOC3)OC)c2Cl)c1O` (stereo not drawn) [Example 423], the logP entry is given as “(I-2) logP = 1.97^a)”.

Consider `CCON(C)Cc1c(S(C)(=O)=O)ccc(C(=O)C2C(=O)CCCC2=O)c1Cl` [Example 424], for which the logP entry is on record as “logP = 2.82^a)”.

For `CCON(C)Cc1c(S(C)(=O)=O)ccc(C(=O)C2C(=O)CCC(C)(C)C2=O)c1Cl` (stereo not drawn) [Example 425], the logP entry is on record as “(I-2) logP = 3.65^a)”.

For `CS(=O)(=O)c1ccc(C(=O)C2C(=O)CCCC2=O)c(Cl)c1CN(CC1CCOC1)OC1CCCC1` (stereo not drawn) [Example 426], the logP result is given as “(I-2) logP = 3.53^a)”.

Regarding `CCON(Cc1c(S(C)(=O)=O)ccc(C(=O)c2cnn(C)c2O)c1Cl)CC1CCOC1` (stereo not drawn) [Example 427], the logP result was “(I-2) logP = 1.90^a)”.

For the compound `CON(Cc1ccoc1)Cc1c(S(C)(=O)=O)ccc(C(=O)C2C(=O)CCCC2=O)c1Cl` [Example 428], the logP entry is “(I-2) logP = 3.10^a)”.

As to `COCCON(C)Cc1c(S(C)(=O)=O)ccc(C(=O)C2C(=O)CCCC2=O)c1Cl` [Example 429], the logP entry was “(I-2) logP = 2.43^a)”.

Regarding `CCn1ncc(C(=O)c2ccc(S(C)(=O)=O)c(CN(C)OCCOC)c2Cl)c1O` [Example 431], the logP entry was “(I-2) logP = 1.80^a)”.

Regarding `COCCON(C)Cc1c(S(C)(=O)=O)ccc(C(=O)C2C(=O)CCC(C)(C)C2=O)c1Cl` (stereo not drawn) [Example 432], the logP result was “(I-2) logP = 3.22^a)”.

In the case of `COCCON(C)Cc1c(S(C)(=O)=O)ccc(C(=O)c2cnn(C)c2O)c1Cl` [Example 433], the logP result is “(I-2) logP = 1.51^a)”.

Regarding `CN(Cc1c(S(C)(=O)=O)ccc(C(=O)C2C(=O)CCCC2=O)c1Cl)OCC1CCOC1` (stereo not drawn) [Example 434], the logP result is reported as “(I-2) logP = 2.67^a)”.

Take `CCn1ncc(C(=O)c2ccc(S(C)(=O)=O)c(CN(C)OCC3CCOC3)c2Cl)c1O` (stereo not drawn) [Example 435]: the logP entry is “(I-2) logP = 2.03^a)”.

Regarding `CN(Cc1c(S(C)(=O)=O)ccc(C(=O)C2C(=O)CCC(C)(C)C2=O)c1Cl)OCC1CCOC1` (stereo not drawn) [Example 436], the logP result is “(I-2) logP = 3.49^a)”.

As to `CN(Cc1c(S(C)(=O)=O)ccc(C(=O)c2cnn(C)c2O)c1Cl)OCC1CCOC1` (stereo not drawn) [Example 437], the logP result is “(I-2) logP = 1.73^a)”.

Regarding `CN(Cc1c(S(C)(=O)=O)ccc(C(=O)C2C(=O)CCCC2=O)c1Cl)OCC1CCCCO1` (stereo not drawn) [Example 438], the logP entry is “(I-2) logP = 3.04^a)”.

For `CCn1ncc(C(=O)c2ccc(S(C)(=O)=O)c(CN(C)OCC3CCCCO3)c2Cl)c1O` (stereo not drawn) [Example 439], the logP entry is “(I-2) logP = 2.35^a)”.

Consider `CN(Cc1c(S(C)(=O)=O)ccc(C(=O)c2cnn(C)c2O)c1Cl)OCC1CCCCO1` (stereo not drawn) [Example 440], for which the logP entry is given as “(I-2) logP = 2.01^a)”.

Consider `CCn1ncc(C(=O)c2ccc(S(C)(=O)=O)c(CN(Cc3ccoc3)OC)c2Cl)c1O` [Example 441], for which the logP entry is recorded as “(I-2) logP = 2.39^a)”.

Take `CS(=O)(=O)c1ccc(C(=O)C2C(=O)CCCC2=O)c(Cl)c1CNOCCOc1ccccc1` [Example 442]: the logP entry is reported as “(I-2) logP = 3.07^a)”.

As to `CCn1ncc(C(=O)c2ccc(S(C)(=O)=O)c(CN(C)OCC3CC3)c2Cl)c1O` [Example 443], the logP entry is given as “(I-2) logP = 2.41^a)”.

For the compound `CN(Cc1c(S(C)(=O)=O)ccc(C(=O)C2C(=O)CCCC2=O)c1Cl)OCC1CC1` [Example 444], the logP result is “(I-2) logP = 3.14^a)”.

Regarding `CCn1ncc(C(=O)c2ccc(S(C)(=O)=O)c(CN(C)OCC3CC3)c2Cl)c1O` [Example 445], the logP result was “(I-2) logP = 2.05^a)”.

Turning to `CCON(Cc1c(S(C)(=O)=O)ccc(C(=O)C2C(=O)CCC(C)(C)C2=O)c1Cl)CC1CCOC1` (stereo not drawn) [Example 446], the logP entry is reported as “(I-2) logP = 3.60^a)”.

As for `CCONCc1c(Cl)ccc(C(=O)C2C(=O)CCCC2=O)c1OC` [Example 447], the logP result was “logP = 2.20^a)”.

For the compound `CCONCc1c(Cl)ccc(C(=O)c2cnn(CC)c2O)c1OC` [Example 448], the logP result was “logP = 3.60^a)”.

`CCONCc1c(Cl)ccc(C(=O)C2C(=O)CCC(C)(C)C2=O)c1Cl` (stereo not drawn) [Example 449]: the logP result is “(I-2) logP = 3.64^a)”.

On to `CCONCc1c(Cl)ccc(C(=O)c2cnn(C)c2O)c1Cl` [Example 450], for which the logP entry is “logP = 1.67^a)”.

For the compound `CCON(CC)Cc1c(S(C)(=O)=O)ccc(C(=O)c2cnn(CC)c2O)c1Cl` [Example 451], the logP result was “logP = 2.44^a)”.

Regarding `CCn1ncc(C(=O)c2ccc(S(C)(=O)=O)c(CN(C)S(C)(=O)=O)c2Cl)c1O` [Example 452], the logP result is reported as “logP = 1.25^a)”.

For the compound `CN(Cc1c(S(C)(=O)=O)ccc(C(=O)c2cnn(C)c2O)c1Cl)S(C)(=O)=O` [Example 453], the logP result is recorded as “logP = 0.99^a)”.

For the compound `CN(Cc1c(S(C)(=O)=O)ccc(C(=O)C2C(=O)CCCC2=O)c1Cl)S(C)(=O)=O` [Example 454], the logP entry is “logP = 1.84^a)”.

On to `CN(Cc1c(S(C)(=O)=O)ccc(C(=O)C2C(=O)CCC(C)(C)C2=O)c1Cl)S(C)(=O)=O` (stereo not drawn) [Example 455], for which the logP entry was “(I-2) logP = 2.43^a)”.

For `CCn1ncc(C(=O)c2ccc(Cl)c(CN(C)S(C)(=O)=O)c2Cl)c1O` [Example 456], the logP result was “logP = 1.72^a)”.

As to `CN(Cc1c(Cl)ccc(C(=O)c2cnn(C)c2O)c1Cl)S(C)(=O)=O` [Example 457], the logP entry is “logP = 1.44^a)”.

`CN(Cc1c(Cl)ccc(C(=O)C2C(=O)CCCC2=O)c1Cl)S(C)(=O)=O` [Example 458]: the logP entry was “logP = 2.32^a)”.

For `CN(Cc1c(Cl)ccc(C(=O)C2C(=O)CCC(C)(C)C2=O)c1Cl)S(C)(=O)=O` (stereo not drawn) [Example 459], the logP result is on record as “(I-2) logP = 3.01^a)”.

In the case of `C=CCN(Cc1c(S(C)(=O)=O)ccc(C(=O)C2C(=O)CCCC2=O)c1Cl)S(C)(=O)=O` [Example 460], the logP entry is “logP = 2.17^a)”.

As to `C=CCN(Cc1c(S(C)(=O)=O)ccc(C(=O)c2cnn(CC)c2O)c1Cl)S(C)(=O)=O` [Example 461], the logP entry is on record as “logP = 1.63^a)”.

Take `CCN(Cc1c(Cl)ccc(C(=O)c2cnn(CC)c2O)c1OC)S(C)(=O)=O` [Example 462]: the logP entry is listed as “logP = 2.12^a)”.

Consider `CCN(Cc1c(Cl)ccc(C(=O)c2cnn(C)c2O)c1OC)S(C)(=O)=O` [Example 463], for which the logP result is reported as “logP = 1.80^a)”.

For `CCN(Cc1c(Cl)ccc(C(=O)C2C(=O)CCCC2=O)c1OC)S(C)(=O)=O` [Example 464], the logP entry is reported as “logP = 2.47^a)”.

As to `CCN(Cc1c(Cl)ccc(C(=O)C2C(=O)CCC(C)(C)C2=O)c1OC)S(C)(=O)=O` (stereo not drawn) [Example 465], the logP result is “(I-2) logP = 3.21^a)”.

With `CCN(Cc1c(S(C)(=O)=O)ccc(C(=O)C2C(=O)CCC(C)(C)C2=O)c1Cl)S(C)(=O)=O` (stereo not drawn) [Example 466], the logP result was “(I-2) logP = 2.64^a)”.

On to `CCN(Cc1c(S(C)(=O)=O)ccc(C(=O)C2C(=O)CCCC2=O)c1Cl)S(C)(=O)=O` [Example 467], for which the logP result is reported as “logP = 2.02^a)”.

With `CCN(Cc1c(S(C)(=O)=O)ccc(C(=O)c2cnn(CC)c2O)c1Cl)S(C)(=O)=O` [Example 468], the logP entry is given as “logP = 1.48^a)”.

For `CCN(Cc1c(S(C)(=O)=O)ccc(C(=O)c2cnn(C)c2O)c1Cl)S(C)(=O)=O` [Example 469], the logP entry is on record as “logP = 1.22^a)”.

`CCn1ncc(C(=O)c2ccc(Cl)c(CN(C)S(C)(=O)=O)c2OC)c1O` [Example 470]: the logP entry is “logP = 1.86^a)”.

For the compound `COc1c(C(=O)c2cnn(C)c2O)ccc(Cl)c1CN(C)S(C)(=O)=O` [Example 471], the logP entry was “logP = 1.55^a)”.

For the compound `COc1c(C(=O)C2C(=O)CCCC2=O)ccc(Cl)c1CN(C)S(C)(=O)=O` [Example 472], the logP result is “logP = 2.20^a)”.

For the compound `COc1c(C(=O)C2C(=O)CCC(C)(C)C2=O)ccc(Cl)c1CN(C)S(C)(=O)=O` (stereo not drawn) [Example 473], the logP entry is “(I-2) logP = 2.92^a)”.

With `CCN(Cc1c(Cl)ccc(C(=O)C2C(=O)CC(C)CC2=O)c1OC)S(C)(=O)=O` (stereo not drawn) [Example 474], the logP entry is “(I-2) logP = 2.81^a)”.
